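Step 1: Grow cells in 96-well plates. Step 2: Expose to compound for 48 hours at 5 concentrations. Step 3: Interpolate endpoints linearly; if unreached, use highest concentration. At the TGI there is no net growth.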
Assays:
Experiment in all cases: NCI-60 cell line screen, 48 h
786-0 renal = system: 786-0 renal
A498 renal = system: A498 renal
A549 NSCLC = system: A549 NSCLC
ACHN renal = system: ACHN renal
BT-549 breast = system: BT-549 breast
CAKI-1 renal = system: CAKI-1 renal
CCRF-CEM leukemia = system: CCRF-CEM leukemia
COLO 205 colon = system: COLO 205 colon
DU-145 prostate = system: DU-145 prostate
EKVX NSCLC = system: EKVX NSCLC
HCT-116 colon = system: HCT-116 colon
HCT-15 colon = system: HCT-15 colon
HL-60(TB) leukemia = system: HL-60(TB) leukemia
HOP-62 NSCLC = system: HOP-62 NSCLC
HOP-92 NSCLC = system: HOP-92 NSCLC
HS 578T breast = system: HS 578T breast
HT29 colon = system: HT29 colon
IGROV1 ovarian = system: IGROV1 ovarian
K-562 leukemia = system: K-562 leukemia
KM12 colon = system: KM12 colon
LOX IMVI melanoma = system: LOX IMVI melanoma
M14 melanoma = system: M14 melanoma
MALME-3M melanoma = system: MALME-3M melanoma
MCF7 breast = system: MCF7 breast
MDA-MB-231 breast = system: MDA-MB-231 breast
MDA-MB-435 = system: MDA-MB-435
MDA-N = system: MDA-N
MOLT-4 leukemia = system: MOLT-4 leukemia
NCI-H226 lung = system: NCI-H226 lung
NCI-H23 lung = system: NCI-H23 lung
NCI-H460 lung = system: NCI-H460 lung
NCI-H522 lung = system: NCI-H522 lung
NCI/ADR-RES ovarian = system: NCI/ADR-RES ovarian
OVCAR-3 ovarian = system: OVCAR-3 ovarian
OVCAR-4 ovarian = system: OVCAR-4 ovarian
OVCAR-5 ovarian = system: OVCAR-5 ovarian
OVCAR-8 ovarian = system: OVCAR-8 ovarian
PC-3 prostate = system: PC-3 prostate
RPMI-8226 leukemia = system: RPMI-8226 leukemia
RXF 393 renal = system: RXF 393 renal
SF-268 CNS = system: SF-268 CNS
SF-295 CNS = system: SF-295 CNS
SF-539 CNS = system: SF-539 CNS
SK-MEL-2 melanoma = system: SK-MEL-2 melanoma
SK-MEL-28 melanoma = system: SK-MEL-28 melanoma
SK-MEL-5 melanoma = system: SK-MEL-5 melanoma
SK-OV-3 ovarian = system: SK-OV-3 ovarian
SN12C renal = system: SN12C renal
SNB-19 CNS = system: SNB-19 CNS
SNB-75 CNS = system: SNB-75 CNS
SR leukemia = system: SR leukemia
SW-620 colon = system: SW-620 colon
T-47D breast = system: T-47D breast
TK-10 renal = system: TK-10 renal
U251 CNS = system: U251 CNS
UACC-257 melanoma = system: UACC-257 melanoma
UACC-62 melanoma = system: UACC-62 melanoma

Measured: TGI

CC(=O)C=NCC(=O)O
> 100 µM: 786-0 renal | A498 renal | A549 NSCLC | ACHN renal | BT-549 breast | CAKI-1 renal | CCRF-CEM leukemia | COLO 205 colon | DU-145 prostate | EKVX NSCLC | HCT-116 colon | HCT-15 colon | HL-60(TB) leukemia | HOP-62 NSCLC | HOP-92 NSCLC | HS 578T breast | HT29 colon | IGROV1 ovarian | K-562 leukemia | KM12 colon | LOX IMVI melanoma | M14 melanoma | MALME-3M melanoma | MCF7 breast | MDA-MB-231 breast | MDA-MB-435 | MDA-N | MOLT-4 leukemia | NCI-H226 lung | NCI-H23 lung | NCI-H460 lung | NCI-H522 lung | NCI/ADR-RES ovarian | OVCAR-3 ovarian | OVCAR-4 ovarian | OVCAR-5 ovarian | OVCAR-8 ovarian | PC-3 prostate | RPMI-8226 leukemia | RXF 393 renal | SF-268 CNS | SF-295 CNS | SF-539 CNS | SK-MEL-2 melanoma | SK-MEL-28 melanoma | SK-MEL-5 melanoma | SK-OV-3 ovarian | SN12C renal | SNB-19 CNS | SNB-75 CNS | SR leukemia | SW-620 colon | T-47D breast | TK-10 renal | U251 CNS | UACC-257 melanoma | UACC-62 melanoma
